We go through 15 molecules from PubChem BioAssay (NCI).

Values joined by “and” are separate entries in the source; they are usually repeats but may differ in a detail not shown here. Equal values may be shown once.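 Tested at 5 concentrations; 48 h exposure; 96-well plates; endpoints linearly interpolated, else capped at highest concentration. At the GI50, growth is halved. At the TGI there is no net growth.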

Among the test systems are SF-539 CNS; HT29 colon; EKVX NSCLC; TK-10 renal; SNB-75 CNS; A498 renal; SNB-19 CNS; KM12 colon; OVCAR-4 ovarian.
Assay in all cases: NCI anticancer screen, dose series, 48 h

Take `CC1=CC(/C=C(\C)CCCc2ccoc2)C2(OC(=O)C(C)=C2O)[C@H]2C1CC[C@@H]2C` (stereo partly specified): the TGI with SF-539 CNS was 36.8 µM; with HT29 colon, > 100 µM; in the test on EKVX NSCLC, > 100 µM; in the test on TK-10 renal, > 100 µM; with SNB-75 CNS, > 100 µM; in the test on A498 renal, 49.2 µM. The TGI in the test with SNB-19 CNS is 42.6 µM; in the test on KM12 colon, > 100 µM.
Regarding `O=[n+]1c2c(n([O-])c3ccccc31)CCCCCCCCCC2`, the TGI in the test with SF-539 CNS, in the test on HT29 colon, with EKVX NSCLC, with TK-10 renal, with SNB-75 CNS and in the test on SNB-19 CNS was > 100 µM in each case. Further, in the test with KM12 colon, the TGI is > 100 µM.
On to `CC1=Nc2ccccc2C1C(Cc1ccccc1N)c1c(C)[nH]c2ccccc12` (stereo unspecified), for which the TGI stood at 31.5 µM in the test with SF-539 CNS; 33.1 µM with HT29 colon; 37.7 µM in the test on EKVX NSCLC; 30.8 µM in the test on TK-10 renal; 34.8 µM with SNB-75 CNS; 29.8 µM in the test on A498 renal. In addition, the figures for the TGI in the test on SNB-19 CNS and with KM12 colon were 41.6 µM and 31.7 µM, respectively.
Turning to `COC(=O)C1=C(c2ccc3c(c2)OCO3)O[C@H](c2cc(OC)c(OC)c(OC)c2)[C@H]1COC(C)=O`, the TGI in the test with SF-539 CNS is 6.91 µM; in the test on HT29 colon, 11.5 µM; with EKVX NSCLC, > 100 µM; in the test with OVCAR-4 ovarian, > 100 µM; with TK-10 renal it was > 100 µM; in the test on SNB-75 CNS it was > 100 µM. For the same molecule, the TGI in the test with A498 renal was 2.94 µM; with KM12 colon, 50 µM.
For the molecule `O=c1nc2occc2cn1C1CC(O)C(CO)O1` (stereo unspecified), the TGI with SF-539 CNS, in the test with HT29 colon, with EKVX NSCLC, in the test with OVCAR-4 ovarian, in the test with TK-10 renal and in the test on SNB-75 CNS was > 100 µM each time. The TGI with A498 renal, in the test on SNB-19 CNS and in the test with KM12 colon was > 100 µM in each case.
Turning to `COC(=O)C12C3C4C1C1C2C3C41C(=O)OC(C)(C)C` (stereo unspecified), the TGI in the test on SF-539 CNS, in the test on HT29 colon, with EKVX NSCLC, in the test with OVCAR-4 ovarian, in the test on TK-10 renal and in the test with SNB-75 CNS was > 100 µM throughout. The TGI in the test on A498 renal, with SNB-19 CNS and in the test with KM12 colon was > 100 µM throughout.
For the molecule `CNC(=S)NC1CCCCC1NC(=S)NC` (stereo unspecified), the TGI in the test with SF-539 CNS, with HT29 colon, in the test on EKVX NSCLC, with OVCAR-4 ovarian, in the test with SNB-75 CNS and in the test with SNB-19 CNS was > 100 µM throughout. Besides, the TGI in the test on KM12 colon is > 100 µM.
Take `CC(C)(C)[SiH]12(OC(C(F)(F)F)(C(F)(F)F)c3ccccc31)OC(C(F)(F)F)(C(F)(F)F)c1ccccc12`: the TGI in the test with SF-539 CNS is 6.54 µM; with HT29 colon, 13.2 µM; in the test on EKVX NSCLC it was 14.1 µM; in the test with OVCAR-4 ovarian, 19.7 µM; in the test with TK-10 renal, 26.3 µM; in the test on SNB-75 CNS, 7.18 µM. The TGI in the test on SNB-19 CNS was found to be 13.1 µM; in the test on KM12 colon it was 15.3 µM.
On to `CC(=O)O.CC(=O)O.CC(=O)O.CC(=O)O.CC(=O)O.CC(=O)O.O.[Ti].[Ti]`, for which the GI50 with SF-539 CNS is > 100 µM; in the test with HT29 colon, > 100 µM; in the test on EKVX NSCLC it was > 100 µM; with OVCAR-4 ovarian it was > 100 µM; in the test on TK-10 renal, > 100 µM; with SNB-75 CNS it was 56 µM. Also, the GI50 in the test on A498 renal was > 100 µM; in the test on SNB-19 CNS it was 65.6 µM; in the test on KM12 colon, > 100 µM. The TGI in the test on SF-539 CNS, with HT29 colon, in the test with EKVX NSCLC, in the test with OVCAR-4 ovarian, in the test with TK-10 renal and in the test with SNB-75 CNS was > 100 µM in each case. Moreover, the TGI in the test on A498 renal, with SNB-19 CNS and with KM12 colon was > 100 µM throughout.
As to `CC1OC(n2cc(F)c(=O)[nH]c2=O)C=CC1O` (stereo unspecified), the TGI in the test on SF-539 CNS, in the test on HT29 colon, with EKVX NSCLC, in the test on OVCAR-4 ovarian, in the test on TK-10 renal and with SNB-75 CNS was > 100 µM in each case. Besides, the TGI in the test with A498 renal, in the test with SNB-19 CNS and with KM12 colon was > 100 µM each time.
Take `Cc1ccc(S(=O)(=O)NCC2CCCCC2=O)cc1` (stereo unspecified): the TGI with SF-539 CNS is > 100 µM; in the test on HT29 colon it was > 100 µM; with EKVX NSCLC, > 100 µM; in the test with OVCAR-4 ovarian, > 100 µM; with TK-10 renal, > 100 µM; in the test with SNB-75 CNS, 93.1 µM. The TGI with A498 renal, with SNB-19 CNS and with KM12 colon was > 100 µM throughout.
`CC(C)(C)OC(=O)NCC(=O)OCc1ccccc1`: the TGI in the test on SF-539 CNS, in the test with HT29 colon, in the test on TK-10 renal, in the test with SNB-75 CNS, in the test with A498 renal and in the test on SNB-19 CNS was > 100 µM throughout. Moreover, the TGI in the test on KM12 colon was > 100 µM.
As to `COC(=O)c1cc2c(cc1O)[C@@H](NC(C)=O)CCc1cc(OC)c(OC)c(OC)c1-2`, the TGI was 76.6 µM in the test with SF-539 CNS; 0.201 µM and 0.0554 µM in the test with HT29 colon; > 100 µM with OVCAR-4 ovarian; > 100 µM in the test with SNB-19 CNS. Further, the GI50 with HT29 colon was 0.0206 µM; with OVCAR-4 ovarian, 1.06 µM; in the test with A498 renal, 0.0422 µM; in the test on SNB-19 CNS, 0.0355 µM; in the test with KM12 colon, < 0.01 µM.
As to `O=C1c2ccccc2C2(Br)C(=O)c3ccccc3C12` (stereo unspecified), the TGI with SF-539 CNS, in the test on HT29 colon, in the test on EKVX NSCLC, in the test with OVCAR-4 ovarian, in the test with TK-10 renal and in the test with SNB-75 CNS was > 100 µM each time. Moreover, in the test on KM12 colon, the TGI was > 100 µM.
For the molecule `O=C1CN=C(C[N+](=O)[O-])c2ccccc21`, the TGI in the test on SF-539 CNS, with HT29 colon, with EKVX NSCLC, in the test with OVCAR-4 ovarian, in the test on SNB-75 CNS and with A498 renal was > 100 µM in each case. Also, the TGI in the test with SNB-19 CNS and with KM12 colon was > 100 µM in each case.
